The record followed here is PubChem BioAssay (NCI).

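Compound exposure: 48 hours, 5 concentrations, 96-well plates. TGI: concentration producing complete growth inhibition.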

Common to all, as to experiment: NCI tumour cell line growth inhibition, 48 h
Assay [1] deals with A498 renal.
The subject of assay [2] is BT-549 breast.
Assay [3] relates to CCRF-CEM leukemia.
Assay [4] has as its system HCT-15 colon.
In assay [5] the test system is HOP-62 NSCLC.
Assay [6] deals with LOX IMVI melanoma.
The subject of assay [7] is MCF7 breast.
Assay [8] has as its system MOLT-4 leukemia.
Assay [9] relates to OVCAR-8 ovarian.
For assay [10], the system named is SK-MEL-5 melanoma.
For assay [11], the system named is UACC-62 melanoma.

Take `CC(=O)OC[C@@]12C[C@H]3C(=O)C(C)(C)C[C@H]3[C@]1(C)[C@@H](OC(C)=O)[C@]1(O)[C@H]([C@@H](OC(=O)c3ccccc3)[C@@H](C)[C@H]1OC(C)=O)[C@H]2OC(C)=O`: the TGI in assay [1], in assay [2], in [3], in assay [4], in assay [5] and in assay [6] was above 20 µM each time. The TGI in assay [7], in [8], in [9], in [10] and in assay [11] was above 20 µM each time.

On to `O=C1OC(CN2CCN(c3ccccc3)CC2)CN1C(=S)Nc1ccccc1` (stereo unspecified), for which the TGI in assay [1], in assay [2], in assay [3], in [4], in [5] and in assay [6] was above 100 µM each time. The TGI in assay [7], in assay [8], in [9], in assay [10] and in [11] was above 100 µM each time.

`CC(C)[Si]1(C(C)C)OCC2OC(n3ccc(=O)[nH]c3=O)C(O)(CO)C2O[Si](C(C)C)(C(C)C)O1` (stereo unspecified): the TGI is 36.1 µM in assay [1]; 30.7 µM in assay [2]; 30.7 µM in assay [3]; 36.2 µM in assay [4]; 33.8 µM in assay [5]; 30.7 µM in assay [6]. Also, the TGI is 29.2 µM in assay [7]; 69.1 µM in assay [8]; 29.5 µM in assay [9]; 28.4 µM in assay [10]; 29.2 µM in assay [11].

On to `CN(/N=C\c1ccc2ccccc2c1)C1=NCCCCN1`, for which the TGI is 56.6 µM in assay [1]; 46.8 µM in [2]; 69.1 µM in assay [3]; above 100 µM in assay [4]; 90.7 µM in assay [5]; 28.7 µM in assay [6]. Besides, the TGI in [7] was 48.9 µM; in assay [8], 48.2 µM; in assay [9] it was above 100 µM; in assay [10] it was 27.3 µM; in assay [11] it was 64.2 µM.

Take `O=C(C1OC1c1ccc([N+](=O)[O-])cc1)C12CC3CC(CC(C3)C1)C2` (stereo unspecified): the TGI was found to be 35.7 µM in [1]; 40.2 µM in [2]; 7.66 µM in assay [3]; 31.5 µM in [4]; 56.3 µM in [5]; 4.19 µM in assay [6]. The TGI in [7] stood at 33.1 µM; in [8], 49.3 µM; in assay [9], 38.2 µM; in assay [10], 29.1 µM; in [11], 28.9 µM.

Consider `Cc1nc2c(-c3ccccc3)[nH]c(C)c2c(=O)o1`, for which the TGI in assay [1], in assay [2], in assay [3], in assay [4], in assay [5] and in assay [6] was above 100 µM each time. Moreover, the TGI in assay [7] was 37.7 µM; in assay [8], above 100 µM; in [9], above 100 µM; in assay [10], above 100 µM; in assay [11], above 100 µM.
